A short description of data set [1]: Antioxidant activity assessed as DPPH radical scavenging activity at 0.05 mM after 30 mins. As to conditions: 0.5 h, 50 µM. Type of data set: physicochemical.
Data set [2] in a line: Antioxidant activity assessed as DPPH radical scavenging activity at 0.125 mM after 30 mins. Type of data set: physicochemical. As to conditions: 0.5 h, 125 µM. On the technique in general: Loss of DPPH colour is used to gauge radical scavenging.
The nature of data set [3]: Antioxidant activity assessed as DPPH radical scavenging activity at 2 mM after 30 mins. The settings on record: 0.5 h, 2000 µM. Type of data set: physicochemical.
Data set [4] is described as follows: Antioxidant activity assessed as DPPH radical scavenging activity at 0.5 mM after 30 mins. Type of data set: physicochemical. As to conditions: 0.5 h, 500 µM.
Data set [5] in a line: Cytotoxicity against mouse Hepa-1c1c7 cells assessed as cell viability at 10 uM after 24 hrs by crystal violet staining-based assay. As to conditions: read-out: Activity.
Data set [6] deals with NAD(P)H dehydrogenase [quinone] 1 (Mus musculus) (UniProt Q64669). Nature of the data set: Induction of NQO1 activity in mouse Hepa-1c1c7 cells at 20 uM after 24 hrs by MTT assay relative to control. Type of data set: cell-based. (In general: Tetrazolium dyes change colour on reduction, which living cells bring about.)
Data set [7] in a line: Cytotoxicity against mouse Hepa-1c1c7 cells assessed as cell viability at 20 uM after 24 hrs by crystal violet staining-based assay. The settings on record: read-out: Activity.
The target of data set [8] is NAD(P)H dehydrogenase [quinone] 1 (Mus musculus) (UniProt Q64669). In words: Induction of NQO1 activity in mouse Hepa-1c1c7 cells at 10 uM after 24 hrs by MTT assay relative to control. The class given is cell-based.

Results on five compounds are retold here after ChEMBL document CHEMBL3745701, “Bioactive minor components of the total salvianolic acids injection prepared from Salvia miltiorrhiza Bge” (Bioorg Med Chem Lett, 2016).

Structures are written as SMILES.

Sequence of NAD(P)H dehydrogenase [quinone] 1 (Mus musculus) (Q64669 whole entry): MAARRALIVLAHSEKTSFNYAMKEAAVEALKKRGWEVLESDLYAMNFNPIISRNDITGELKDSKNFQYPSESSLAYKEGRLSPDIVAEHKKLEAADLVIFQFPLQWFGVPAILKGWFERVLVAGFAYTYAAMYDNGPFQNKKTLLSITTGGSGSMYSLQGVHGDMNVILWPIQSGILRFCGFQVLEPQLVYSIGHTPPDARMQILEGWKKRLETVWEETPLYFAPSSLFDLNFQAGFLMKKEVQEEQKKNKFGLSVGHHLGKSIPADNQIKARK

On to `O=C1O[C@H]([C@@H](O)CO)C(O)=C1O` [ASCORBIC ACID], for which the “inhibition (INH)” value in data set [1] stood at 26%; in data set [2], 31.8%; in data set [3], 74.9%; in data set [4], 58.5%.
In the case of `O=C(/C=C/c1ccc(O)c2c1[C@@H](C(=O)O[C@@H](Cc1ccc(O)c(O)c1)C(=O)O)[C@H](c1ccc(O)c(O)c1)O2)O[C@@H](Cc1ccc(O)c(O)c1)C(=O)O`, in data set [5], the viability at 24 h, 10 µM was 97%. Further, the “inhibition (INH)” value in data set [1] is recorded as 42.1%; in data set [2], 64.9%; in data set [3], 84.3%; in data set [4], 77.1%. Moreover, the values for the fold change (FC) in data set [6] and in data set [8] were 1.7 and 1.2, respectively. Also, the viability at 24 h, 20 µM in data set [7] is 82%.
Take `O=c1cc(-c2ccc(Br)cc2)oc2ccccc12`: the viability at 24 h, 10 µM in data set [5] was 109%. Also, in data set [8], the fold change (FC) came to 2.9.
For the compound `O=C(/C=C/c1ccc(O)c(O)c1/C(=C/c1ccc(O)c(O)c1)C(=O)O[C@@H](Cc1ccc(O)c(O)c1)C(=O)O)O[C@@H](Cc1ccc(O)c(O)c1)C(=O)O`, in data set [5], the viability at 24 h, 10 µM is 94%. For the same compound, the “inhibition (INH)” value in data set [1] is reported as 4.4%; in data set [2], 8.1%; in data set [3], 53.6%; in data set [4] it was 14.8%. The fold change (FC) was determined as 2.6 in data set [6] and 1.4 in data set [8]. Moreover, the viability at 24 h, 20 µM in data set [7] was determined as 88%.
`O=C(/C=C/c1ccc(O)c2c1[C@@H](C(=O)O[C@H](Cc1ccc(O)c(O)c1)C(=O)O)[C@H](c1ccc(O)c(O)c1)O2)O[C@H](Cc1ccc(O)c(O)c1)C(=O)O`: in data set [5], the viability at 24 h, 10 µM was 85%. The “inhibition (INH)” value in data set [1] came to 37.6%; in data set [2], 60.2%; in data set [3], 84.7%; in data set [4], 64.1%. Further, the fold change (FC) in data set [6] came to 1.4; in data set [8], 1. Further, in data set [7], the viability at 24 h, 20 µM was 79%.
